Measurements: ChEMBL document CHEMBL1201862, “PubChem BioAssay data set” (2004)
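Method: 48-hour compound exposure of cells in 96-well plates, five concentrations, linear interpolation of endpoints. GI50 = concentration required for 50% inhibition of growth.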 Activity calls are given as the source filed them. Rule as the data show it: active = GI50 up to about 1.1 µM and inactive = higher.

What was measured:
Assay in all cases: growth of human tumour cells (NCI), 48 h
SF-268 = test system: SF-268
K562 = test system: K562
HCT-15 = test system: HCT-15
SF-295 = test system: SF-295
NCI-H522 = test system: NCI-H522
MOLT-4 = test system: MOLT-4
M14 = test system: M14
UACC-62 = test system: UACC-62
SNB-75 = test system: SNB-75
SN12C = test system: SN12C
SW-620 = test system: SW-620
SF-539 = test system: SF-539
SK-OV-3 = test system: SK-OV-3
TK-10 = test system: TK-10
CAKI-1 = test system: CAKI-1
SK-MEL-5 = test system: SK-MEL-5
UACC-257 = test system: UACC-257
COLO 205 = test system: COLO 205
DMS-273 = test system: DMS-273
DMS-114 = test system: DMS-114
OVCAR-3 = test system: OVCAR-3
RXF 393 = test system: RXF 393
M19-MEL = test system: M19-MEL
EKVX = test system: EKVX
UO-31 = test system: UO-31
LOX IMVI = test system: LOX IMVI
NCI-H23 = test system: NCI-H23
RPMI-8226 = test system: RPMI-8226
HT-29 = test system: HT-29
HL-60 = test system: HL-60
SK-MEL-28 = test system: SK-MEL-28
CCRF-CEM = test system: CCRF-CEM
A549 = test system: A549
IGROV-1 = test system: IGROV-1
KM12 = test system: KM12
SNB-19 = test system: SNB-19
OVCAR-8 = test system: OVCAR-8
NCI-H226 = test system: NCI-H226
HCT-116 = test system: HCT-116
A498 = test system: A498
U-251 = test system: U-251
SR = test system: SR
HOP-18 = test system: HOP-18
DLD-1 = test system: DLD-1
NCI-H460 = test system: NCI-H460
HOP-62 = test system: HOP-62
KM-20L2 = test system: KM-20L2
LXFL 529 = test system: LXFL 529
786-0 = test system: 786-0
ACHN = test system: ACHN
OVCAR-4 = test system: OVCAR-4
SNB-78 = test system: SNB-78
HOP-92 = test system: HOP-92
OVCAR-5 = test system: OVCAR-5
HCC 2998 = test system: HCC 2998
SK-MEL-2 = test system: SK-MEL-2
XF498 = test system: XF498
Malme-3M = test system: Malme-3M

O=C1N[C@@H]2CCC[C@@H]2[C@@H]1c1ccc(Cl)cc1
GI50 (SF-268): > 100 µM (inactive)
GI50 (K562): > 100 µM (inactive)
GI50 (HCT-15): > 100 µM
GI50 (SF-295): > 100 µM (inactive)
GI50 (NCI-H522): > 100 µM (inactive)
GI50 (MOLT-4): > 100 µM (inactive)
GI50 (M14): > 100 µM (inactive)
GI50 (UACC-62): > 100 µM (inactive)
GI50 (SNB-75): > 100 µM (inactive)
GI50 (SN12C): > 100 µM (inactive)
GI50 (SW-620): > 100 µM (inactive)
GI50 (SF-539): > 100 µM (inactive)
GI50 (SK-OV-3): > 100 µM (inactive)
GI50 (TK-10): > 100 µM (inactive)
GI50 (CAKI-1): > 100 µM (inactive)
GI50 (SK-MEL-5): > 100 µM (inactive)
GI50 (UACC-257): > 100 µM (inactive)
GI50 (COLO 205): > 100 µM (inactive)
GI50 (DMS-273): > 100 µM (inactive)
GI50 (DMS-114): 70 µM (inactive)
GI50 (OVCAR-3): > 100 µM (inactive)
GI50 (RXF 393): > 100 µM (inactive)
GI50 (M19-MEL): > 100 µM (inactive)
GI50 (EKVX): > 100 µM (inactive)
GI50 (UO-31): 65.2 µM (inactive)
GI50 (LOX IMVI): > 100 µM (inactive)
GI50 (NCI-H23): > 100 µM (inactive)
GI50 (RPMI-8226): > 100 µM (inactive)
GI50 (HT-29): > 100 µM (inactive)
GI50 (HL-60): > 100 µM (inactive)
GI50 (SK-MEL-28): > 100 µM (inactive)
GI50 (CCRF-CEM): > 100 µM (inactive)
GI50 (A549): > 100 µM (inactive)
GI50 (IGROV-1): > 100 µM (inactive)
GI50 (KM12): > 100 µM (inactive)
GI50 (SNB-19): > 100 µM (inactive)
GI50 (OVCAR-8): > 100 µM (inactive)
GI50 (NCI-H226): 87.9 µM (inactive)

COc1cc(OC)c(/C=C2\N=C(C)N(Nc3nnc(NN4C(=O)/C(=C/c5c(OC)cc(OC)cc5OC)N=C4C)c4ccccc34)C2=O)c(OC)c1
GI50 (HCT-116): > 100 µM (inactive)
GI50 (SF-268): > 100 µM (inactive)
GI50 (K562): > 100 µM (inactive)
GI50 (HCT-15): > 100 µM
GI50 (SF-295): 93.3 µM (inactive)
GI50 (NCI-H522): > 100 µM (inactive)
GI50 (MOLT-4): > 100 µM (inactive)
GI50 (M14): > 100 µM (inactive)
GI50 (UACC-62): > 100 µM (inactive)
GI50 (SNB-75): 42.3 µM (inactive)
GI50 (A498): > 100 µM (inactive)
GI50 (SN12C): > 100 µM (inactive)
GI50 (SW-620): > 100 µM (inactive)
GI50 (SF-539): > 100 µM (inactive)
GI50 (U-251): > 100 µM (inactive)
GI50 (SK-MEL-5): > 100 µM (inactive)
GI50 (UACC-257): > 100 µM (inactive)
GI50 (COLO 205): > 100 µM (inactive)
GI50 (DMS-273): > 100 µM (inactive)
GI50 (DMS-114): > 100 µM (inactive)
GI50 (SR): > 100 µM (inactive)
GI50 (HOP-18): > 100 µM (inactive)
GI50 (DLD-1): > 100 µM (inactive)
GI50 (RXF 393): > 100 µM (inactive)
GI50 (M19-MEL): > 100 µM (inactive)
GI50 (NCI-H460): > 100 µM (inactive)
GI50 (HOP-62): > 100 µM (inactive)
GI50 (KM-20L2): > 100 µM (inactive)
GI50 (EKVX): 94.4 µM (inactive)
GI50 (LOX IMVI): > 100 µM (inactive)
GI50 (NCI-H23): > 100 µM (inactive)
GI50 (RPMI-8226): > 100 µM (inactive)
GI50 (LXFL 529): > 100 µM (inactive)
GI50 (786-0): > 100 µM (inactive)
GI50 (HT-29): > 100 µM (inactive)
GI50 (HL-60): > 100 µM (inactive)
GI50 (SK-MEL-28): > 100 µM (inactive)
GI50 (CCRF-CEM): > 100 µM (inactive)
GI50 (A549): > 100 µM (inactive)
GI50 (IGROV-1): > 100 µM (inactive)
GI50 (ACHN): > 100 µM (inactive)
GI50 (OVCAR-4): > 100 µM (inactive)
GI50 (KM12): > 100 µM (inactive)
GI50 (SNB-19): > 100 µM (inactive)
GI50 (SNB-78): > 100 µM (inactive)
GI50 (OVCAR-8): > 100 µM (inactive)
GI50 (HOP-92): > 100 µM (inactive)
GI50 (NCI-H226): > 100 µM (inactive)
GI50 (OVCAR-5): > 100 µM (inactive)

Cc1ccc(/C=N/C23CC4CC(CC(C4)C2)C3)cc1
GI50 (HCT-116): > 100 µM (inactive)
GI50 (SF-268): > 100 µM (inactive)
GI50 (K562): > 100 µM (inactive)
GI50 (HCT-15): > 100 µM
GI50 (SF-295): > 100 µM (inactive)
GI50 (HCC 2998): > 100 µM (inactive)
GI50 (MOLT-4): > 100 µM (inactive)
GI50 (M14): > 100 µM (inactive)
GI50 (SNB-75): 44.8 µM (inactive)
GI50 (A498): > 100 µM (inactive)
GI50 (SN12C): > 100 µM (inactive)
GI50 (SK-MEL-2): 85.7 µM (inactive)
GI50 (SW-620): > 100 µM (inactive)
GI50 (SF-539): > 100 µM (inactive)
GI50 (SK-OV-3): > 100 µM (inactive)
GI50 (TK-10): > 100 µM (inactive)
GI50 (U-251): > 100 µM (inactive)
GI50 (CAKI-1): > 100 µM (inactive)
GI50 (SK-MEL-5): 84.1 µM (inactive)
GI50 (UACC-257): > 100 µM (inactive)
GI50 (COLO 205): > 100 µM (inactive)
GI50 (DMS-273): > 100 µM (inactive)
GI50 (DMS-114): 27.5 µM (inactive)
GI50 (SR): > 100 µM (inactive)
GI50 (OVCAR-3): > 100 µM (inactive)
GI50 (RXF 393): > 100 µM (inactive)
GI50 (M19-MEL): > 100 µM (inactive)
GI50 (NCI-H460): > 100 µM (inactive)
GI50 (XF498): 83 µM (inactive)
GI50 (HOP-62): > 100 µM (inactive)
GI50 (KM-20L2): > 100 µM (inactive)
GI50 (EKVX): > 100 µM (inactive)
GI50 (LOX IMVI): > 100 µM (inactive)
GI50 (NCI-H23): > 100 µM (inactive)
GI50 (RPMI-8226): > 100 µM (inactive)
GI50 (786-0): > 100 µM (inactive)
GI50 (HT-29): > 100 µM (inactive)
GI50 (HL-60): > 100 µM (inactive)
GI50 (SK-MEL-28): > 100 µM (inactive)
GI50 (A549): > 100 µM (inactive)
GI50 (IGROV-1): > 100 µM (inactive)
GI50 (ACHN): > 100 µM (inactive)
GI50 (OVCAR-4): > 100 µM (inactive)
GI50 (KM12): > 100 µM (inactive)
GI50 (Malme-3M): 25.1 µM (inactive)
GI50 (SNB-78): > 100 µM (inactive)
GI50 (OVCAR-8): > 100 µM (inactive)
GI50 (NCI-H226): > 100 µM (inactive)
GI50 (OVCAR-5): > 100 µM (inactive)
